Test results as given in US5607836A, “Methods of detecting compounds which bind to the P2U receptor” (The Curators of the University of Missouri, priority 1995, dated 1997).

Tests used:
[1] = biological target: T1, P2U receptor of CF/T43 cells (Homo sapiens, UniProt P41231); test: intracellular calcium by fura-2 fluorescence in CF/T43 cells (endogenous receptor); type: cell-based; settings: for [Ca^2+ ]i response to extracellular nucleotide: 10^-4 M (printed for UTP)
T1 construct: fura-2 calcium
Experimental: (§1) Heteroloqous Expression. A retroviral vector-containing plasmid, pLHP2USN, was constructed by insertion of the cloned CF/T43 cDNA into the EcoRI and XhoI sites of pLXSN (A. Miller and G. Rosman, Biotechniques 7, 980 (1989)). An amphotrophic packaging cell line, PA317, was used to produce the LHP2USN retroviral vector and a control vector containing Neor only (LSN). Clonal human astrocytoma cells 1321N1, UNC strain, generously provided by T. K. Harden (UNC, Chapel Hill, N.C.), were plated at 150,000 cells per 60-mm dish and infected with LHP2USN or LSN (2 hr, 4 ug/ml Polybrene) and after 48 hr selected with 600 ug/ml G418 (Life Technologies, Inc., Gaithersburg, Md., U.S.A.). To assay for receptor activity, intracellular calcium concentration was measured in confluent cells on coverslips by fura-2 fluorescence using microspectrofluorimetry as previously described (S. Mason et al., Br. J. Pharmacol. 103, 1649 (1991)). Measurement of cell inositol phosphate formation was as described by H. Brown et al., Mol. Pharmacol. 40, 648 (1991), in accordance with known techniques.
(§2) A retrovirus expression system was employed to study the cloned CF/T43 HP2U cDNA in 1321N1 human astrocytoma cells. The effect of extracellular nuceotides on intracellular calcium, as measured by fura-2 fluorescence, was assessed in CF/T43 cells, uninfected 1321N1 cells, and 1321N1 cells infected with retroviral vector containing either the cloned HP2U or no insert (LSN).

[2] = test system: 1321N1 human astrocytoma cells (uninfected or LSN-infected); test: intracellular calcium by fura-2 fluorescence in uninfected or LSN-infected 1321N1 control cells; type: cell-based; settings: uninfected or LSN-infected controls
Experimental: as §1, §2

[3] = biological target: human P2U receptor (Homo sapiens, UniProt P41231); test: inositol phosphate formation in 1321N1 cells expressing LHP2USN; type: cell-based; settings: 1321N1 cells expressing LHP2USN pretreated with apyrase
Experimental: as §1
To test this possibility more directly, we measured inositol phosphate formation. […] We hypothesized that during the lengthy labeling period 1321N1 cells released 5'-nucleotides into the medium in quantities sufficient to "self-activate" the receptor. […] Thus, it appears the cells are persistently stimulated by nucleotides in an autocrine fashion. The mode of release of nucleotides from the astrocytoma cells and the biological consequences of the persistent autocrine activation are unknown. To facilitate comparison with controls, the inositol phosphate studies were performed on cells pretreated with apyrase.

[4] = biological target: histidine-tagged P2U receptor (P2HIS) (Mus musculus, UniProt P35383); test: cytoplasmic free calcium in K562 cells stably expressing histidine-tagged P2U receptor (P2HIS); type: cell-based, murine
Experimental: (§3) Cytoplasmic Free Calcium Measurements. Cells were sedimented at 200×g for 5 min at room temperature and washed once with 10 ml of Hepes-bufferedsaline (20 mM Hepes, pH 7.4, 120 mM NaCl, 5 mM KCl, 1 mM MgCl2, and 1 mM CaCl2). Washed cells were suspended in Hepes-buffered saline at 5×10^5 cells/ml, and stored (for up to 4 h) at 37° C. The concentration of cytoplasmic free calcium, [Ca^2+ ]i, was measured by dual-excitation spectrofluorometric analysis of cells loaded with fura-2, a fluorescent probe for calcium.
Construction and Purification of the Histidine-tagged P2U Receptor (P2HIS). To produce P2HIS, 70 pmoles of the primers CGCACCATTGCCTTGGTAC (SEQ ID NO:3)(which contains a BstXI site) and […] (SEQ ID NO:4) (which contains an EcoRV site, stop codon, and the hexahistidine coding sequence) were incubated with 50 ng of pP2R, 20 nmoles of each dNTP, 1X reaction buffer (20 mM Tris-HCl, pH 8.2, 10 mM KCl, 6 mM (NH4)2 SO4, 1.5 mM MgCl2, and 0.1% Triton X-100), and H2 O to bring the reaction mixture to a 100 μl volume. […] The reaction mixture was overlayed with 50 μl of mineral oil and subjected to 30 PCR cycles (95° C. for 1.5 min, 55° C. for 1.5 min, and 72° C. for 2 min). The PCR product, a single 400 bp band, was subcloned into the unique BstXI-EcoRV restriction site of pP2R to generate pP2HIS. […]

[5] = biological target: murine P2U receptor (Mus musculus, UniProt P35383); test: cytoplasmic free calcium (fura-2) in K562 cells transfected with P2U receptor cDNA; type: cell-based; design: missing the first 6 nucleotides of the 5' untranslated region of the full length cDNA; expressed in transfected cells; host or cells: K562 human leukemia cells; settings: for increase in [Ca^2+ ]i: K562 cells stably or transiently transfected with P2U receptor cDNA; for time of return of [Ca^2+ ]i to the basal level / time to maximal [Ca^2+ ]i after nucleotide addition: K562 stable or transient transfectants; for effect of depletion of extracellular Ca^2+ by EGTA on nucleotide-mediated increases in [Ca^2+ ]i: stable transfectants
Excerpt: Stable and Transient Transfections. To generate stable transfectants expressing the P2U receptor, K562 cells were transfected by electroporation (F. Toneguzzo et al., Mol. Cell. Biol. 6, 703 (1986)) with the neomycin-resistance plasmid pP2R1. pP2R1 is pRc/CMV containing a ~2.4 kb HindIII-NotI fragment of the P2U receptor cDNA, missing the first 6 nucleotides of the 5' untranslated region of the full length cDNA. control cells were stably transfected with pRc/CMV. Cells were sedimented at 200×g for 5 min at room temperature, rinsed once with phosphate-buffered saline (10 mM NaH2 PO4, pH 7.4, 120 mM NaCl, 5 mM KCl), and resuspended in phosphate-buffered saline at a final concentration of 4×10^7 cells/ml. The cells were chilled on ice for 10 min and then transferred in 0.5 ml aliquots to prechilled electroporation cuvettes. DNA (40 μg of pP2R1 linearized with PvuI) was added to the cell suspension, the cells were subjected to a single electrical pulse (1 kV, 25 μF) and the cuvettes were placed on ice. After 10 min, growth medium was added and the cells were incubated at 37° C. Fresh growth medium supplemented with 0.7 mg/ml G418 was added 48 h […], and the cells were incubated for 2 weeks to select for stable transfectants expressing neomycin resistance. Clonal cell lines were then isolated by transferring single cells to individual wells of a 96-well culture plate: each well contained 0.2 ml of conditioned growth medium filtered from K562 stock cultures, 0.2 ml of fresh growth medium, and 0.4 mg/ml G418. The clonal cell lines were cultured for three to four weeks in growth medium containing 0.4 mg/ml G418 and assayed for P2U receptor, the results shown are from one representative clonal cell line.
To generate transient transfectants, K562 cells were transfected as above with 40 μg unlinearized plasmid pCCM6×1 or pP2R (Lustig et al., supra 1993). Cells were incubated for 48 h at 37° C. in 100 mm culture dishes containing 12 ml of growth medium and assayed for P2U receptor activity.
as §3

Sequence of murine P2U receptor (P35383 whole entry): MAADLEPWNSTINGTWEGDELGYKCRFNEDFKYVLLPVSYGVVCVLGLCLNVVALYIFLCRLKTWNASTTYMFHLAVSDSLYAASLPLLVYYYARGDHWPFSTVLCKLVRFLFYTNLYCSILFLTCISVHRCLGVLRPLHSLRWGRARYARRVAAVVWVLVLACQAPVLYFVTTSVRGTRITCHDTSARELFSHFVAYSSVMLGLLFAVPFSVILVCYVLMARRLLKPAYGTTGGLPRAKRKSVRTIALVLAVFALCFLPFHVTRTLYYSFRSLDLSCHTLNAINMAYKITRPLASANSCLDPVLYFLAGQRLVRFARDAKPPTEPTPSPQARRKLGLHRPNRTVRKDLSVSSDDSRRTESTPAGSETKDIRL
T1 sequence (P41231 whole entry): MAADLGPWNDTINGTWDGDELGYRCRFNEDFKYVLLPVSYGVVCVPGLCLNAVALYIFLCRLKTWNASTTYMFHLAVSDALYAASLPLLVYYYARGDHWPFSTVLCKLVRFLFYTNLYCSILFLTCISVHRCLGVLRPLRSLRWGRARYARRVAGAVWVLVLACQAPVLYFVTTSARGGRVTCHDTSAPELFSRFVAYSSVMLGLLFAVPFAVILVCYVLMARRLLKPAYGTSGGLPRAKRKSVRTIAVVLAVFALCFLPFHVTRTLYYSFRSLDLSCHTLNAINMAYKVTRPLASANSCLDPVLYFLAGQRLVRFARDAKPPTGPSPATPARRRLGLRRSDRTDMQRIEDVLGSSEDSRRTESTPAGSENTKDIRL
Sequence of histidine-tagged P2U receptor (P2HIS) (P35383 whole entry): as the sequence (P35383 whole entry) above
Sequence of human P2U receptor (P41231 whole entry): as the sequence (P41231 whole entry) above

| Compound | [Ca^2+ ]i response to extracellular nucleotide [1] | [Ca^2+ ]i response to extracellular nucleotide in Ca2+-free medium [1] | [Ca^2+ ]i response of uninfected or LSN-infected 1321N1 cells [2] | inositol phosphate accumulation [3] | [Ca^2+ ]i in K562 cells stably expressing P2HIS [4] | EC50 [5] [nM] | increase in [Ca^2+ ]i [5] | time of return of [Ca^2+ ]i to the basal level [5] [min] | time to maximal [Ca^2+ ]i after nucleotide addition [5] [s] | effect of depletion of extracellular Ca^2+ by EGTA on nucleotide-mediated increases in [Ca^2+ ]i [5] |
| --- | --- | --- | --- | --- | --- | --- | --- | --- | --- | --- |
| Nc1ncnc2c1ncn2[C@@H]1O[C@H](COP(=O)(O)OP(=O)(O)OP(=O)(O)O)[C@@H](O)[C@H]1O [ATP] | the same result observed with UTP | the same result observed with UTP | the same result observed with UTP | increased inositol phosphate accumulation | increase in [Ca^2+ ]i | ~1400 | two-fold increase | ≤ 1 | ≤ 5 | not affected |
| O=c1ccn([C@@H]2O[C@H](COP(=O)(O)OP(=O)(O)OP(=O)(O)O)[C@@H](O)[C@H]2O)c(=O)[nH]1 [UTP] | initial sharp increase in [Ca^2+ ]i which relaxed over 1-2 min to a prolonged plateau | sharp increase in [Ca^2+ ]i which returned to baseline without an intervening plateau phase | no effect | increased inositol phosphate accumulation | increase in [Ca^2+ ]i | ~800 | two-fold increase | ≤ 1 | ≤ 5 | not affected |
